Test results as given in patent US6709681B2, “Acidified nitrite as an antimicrobial agent” (Aberdeen University, priority 1995, dated 2004).
Read-outs that look alike come from different tables or passages of the source.

Assays:
[1] = tested on: caries-producing organisms in dental plaque; C albicans; conditions: toothpaste, mouthwash or other orally acceptable vehicle
[2] = 45 minutes after ingestion of 200 mg potassium nitrate solution; fasting mean 114 μM
[3] = tested on: C albicans
Experimental: With reference to FIG. 1 a single colony of C albicans was used to inoculate an overnight culture in Sabouraud's broth. 10 μl of this broth was added to 940 μl of a citrate/phosphate buffered Sabouraud's broth to which was added sodium nitrite (50 μl; final concentration 250 μM) or distilled water as a control. After one hour incubation at 37° C., 10 μl was removed and cultured in 190 μl standard Sabourauds broth with continual agitation (Gallenkamp orbital incubator) in a 96-well microtitre plate at 37° C. Growth was monitored by measurement of optical density at 570 nm at regular time intervals. The results are a mean of 16 separate experiments.
The open bars show the growth of C albicans measured by the optical density method following exposure to acid alone for 1 hour, while the closed bars show growth following exposure to acid and 250 μM sodium nitrite.

[4] = tested on: E coli (strain NCTC 10418)
Excerpt: The results shown in FIGS. 2A and 2B are a mean of 20 experiments.
The methods are those as for FIG. 2.

In the case of `O=[N+]([O-])O` [nitrate], the “reduction of caries-producing organisms in dental plaque / treatment or prevention of infection with C albicans” value [1] is reported as “effective”.

For `O=[N+]([O-])[O-].[K+]` [potassium nitrate], the “salivary nitrite (mean)” value [2] was 1030 µM.

In the case of `O=NO` [sodium nitrite], the “reduction of caries-producing organisms in dental plaque / treatment or prevention of infection with C albicans” value [1] is reported as “effective”, the “killing of C albicans” value ([3]; 5 nN nitrite, up to pH5) is reported as “killed C albicans” and the “survival of C albicans (growth by optical density)” value ([3]; 250 μgM sodium nitrite, one hour, pH reduced to below 4) is reported as “incrementally killed C albicans”. For the same molecule, the “elimination of C albicans” value ([3]; pH 1, all concentrations above 250 μM (data not shown)) was “effective in eliminating C albicans”, the “effect on E coli” value ([4]; 250 μM nitrite, above pH4) was “no effect” and the “growth of E coli compared with control (acid alone)” value ([4]; 250 μM nitrite, pH 2, 3 and 4) was “significantly (p<0.05) impaired”. The “survival of E coli” value ([4]; 250 μM nitrite, pH2, one hour) was “eliminates E coli”, the “viability of E coli” value ([4]; 250 μM nitrite, pH3 and pH4) was “significantly reduces the viability” and the “toxic effect on E coli” value ([4]; pH3, 10 μM) was “discernable effect”. For the same molecule, the “toxic effect on E coli” value ([4]; pH3, 1 mM) was “killed E coli completely”.
